Experimental data: patent publication US8741849B2, “Kinase inhibitors and uses thereof” (priority 2007, dated 2014)
pIC50: −log10 of the molar value. Where no end group is shown, it is not given here.

Columns and labels:
[1] = tested on: Ca2+/calmodulin-dependent protein kinase II (CaMKII); conditions: cited from earlier work
PKA = conditions: 1 μM AIP; cited from earlier work
PKC = conditions: 1 μM AIP; cited from earlier work
CaMKIV = target: T1, CaMKIV (Homo sapiens, UniProt Q16566); conditions: 1 μM AIP; cited from earlier work
T1 sequence (Q16566 1-473): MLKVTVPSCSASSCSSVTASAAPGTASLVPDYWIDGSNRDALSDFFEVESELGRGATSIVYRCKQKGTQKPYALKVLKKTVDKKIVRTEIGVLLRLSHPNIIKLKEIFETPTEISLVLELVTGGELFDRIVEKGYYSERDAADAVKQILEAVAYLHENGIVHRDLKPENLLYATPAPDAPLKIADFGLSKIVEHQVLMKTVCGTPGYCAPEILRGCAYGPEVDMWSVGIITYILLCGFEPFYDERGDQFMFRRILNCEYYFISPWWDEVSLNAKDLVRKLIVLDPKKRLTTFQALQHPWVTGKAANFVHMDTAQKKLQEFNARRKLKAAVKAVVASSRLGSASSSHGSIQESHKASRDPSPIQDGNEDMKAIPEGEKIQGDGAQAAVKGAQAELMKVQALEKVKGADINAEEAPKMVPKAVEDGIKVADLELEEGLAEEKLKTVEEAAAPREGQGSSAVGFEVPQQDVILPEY

MAPKAP kinase II (MK2) = MAPKAP kinase II (MK2) (Homo sapiens, UniProt P49137); test: Omnia Lysate Assay for MAPKAP-K2: MK2 reaction velocity; type: biochemical; conditions: same assay conditions as Example 1
MAPKAP kinase II (MK2), sequence (P49137 whole entry, species assumed): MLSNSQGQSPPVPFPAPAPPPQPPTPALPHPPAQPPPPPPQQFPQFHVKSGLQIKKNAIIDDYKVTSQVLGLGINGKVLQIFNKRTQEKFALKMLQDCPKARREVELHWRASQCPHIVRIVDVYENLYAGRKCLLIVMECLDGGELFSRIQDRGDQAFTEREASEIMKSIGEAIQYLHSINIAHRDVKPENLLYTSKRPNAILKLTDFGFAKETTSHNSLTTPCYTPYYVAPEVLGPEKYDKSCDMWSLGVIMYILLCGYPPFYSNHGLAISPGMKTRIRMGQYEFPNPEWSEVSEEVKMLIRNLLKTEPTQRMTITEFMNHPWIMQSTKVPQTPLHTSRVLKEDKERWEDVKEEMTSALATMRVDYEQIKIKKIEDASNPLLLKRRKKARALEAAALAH
Protocol: Using the Omnia™ Lysate Assay for MAPKAP-K2 kit (Invitrogen, Carlsbad, Calif.), the reaction velocity for MK2 was determined in the presence and absence of each of the peptides listed in Table 2. Briefly, inhibitor peptide concentrations at 12.5 μmol, 25 μmol, 50 μmol and 100 μmol were evaluated. The kit contains a proprietary reaction buffer to which the following are added (final concentrations are given): 1 mM ATP, 0.2 mM DTT, 10 μM MAPKAP-K2 Sox-modified peptide substrate, 5 ng MK2, and the peptide inhibitor of interest (final volume of 50 μL). The reactions were performed in the wells of a low protein-binding 96-well plate provided with the kit, and fluorescence readings at 485 nm were taken every 30 seconds for 20 minutes in a Molecular Devices M5 Spectrophotometer. A peptide having the sequence […]
The MK2 inhibition activity of […] [SEQ ID NO: 134] transduction domain was compared with the MK2 inhibition activity of other known transduction domains—[…] [SEQ ID NO: 135] and […] [SEQ ID NO: 190]. The transduction domains were tested for MK2 activity using the same assay conditions as Example 1.
A set of MK2 inhibitor peptides having transduction domains was synthesized (see Table 5). Variants included peptides with the […] [SEQ ID NO: 134] transduction domain and alanine substituted for asparagine, alanine substituted for glycine, or both alanine substitutions in the therapeutic domain. The same peptides with the […] [SEQ ID NO: 135] transduction domain also were prepared. The reaction velocities of these variants were compared to the reaction velocity of a blank with no inhibitor added.

A549 lung cancer cells = test: Toxicity testing on cancer cell lines (MTT); type: cell-based; conditions: 72 hours, n=4, read-out: Cell Line IC50, A549
Protocol: (§1) The seven cell lines were: estrogen dependent MCF-7 breast cancer cells, non estrogen dependent MDA 231 breast cancer cells, SF 539 central nervous system cancer cells, HT29 colon cancer cells, Paca 2 pancreatic cancer cells, PC3 prostate cancer cells, and A549 lung cancer cells. For each cell line, exponentially growing cells were trypsinized and seeded into individual wells of a 96-well plate. Cells were maintained in a humidified, 5% CO2 incubator at 37° C. for 24 hours. The next day, fresh media was added along with 1 μl of a stock solution of peptide to give final peptide concentrations of 0.3 μM, 1 μM, 3 μM, 10 μM, 30 μM, and 100 μM (n=4). Doxorubicin was tested as a positive control. After incubating the cells for 72 hours, to each well was added 20 μl of 0.5% MTT {3-([…])-2,5 diphenyl tetrazolium bromide} solution. The plates then were incubated for an additional 4 hours, at which time the absorbance at 570 nm was measured for each well using a microplate reader. The absorbance was plotted as function of peptide concentration, and IC50 values were calculated for each peptide for each cell line.

HT29 colon cancer cells = test: Toxicity testing on cancer cell lines (MTT); type: cell-based; conditions: 72 hours, n=4, read-out: Cell Line IC50, HT29
Protocol: as §1

[2] = tested on: PC3 prostate cancer cells; test: Toxicity testing on cancer cell lines (MTT); type: cell-based; conditions: 72 hours, n=4, read-out: Cell Line IC50, PC3
Protocol: as §1

[3] = tested on: Paca 2 pancreatic cancer cells; test: Toxicity testing on cancer cell lines (MTT); type: cell-based; conditions: 72 hours, n=4, read-out: Cell Line IC50, Paca 2
Protocol: as §1

[4] = tested on: SF 539 central nervous system cancer cells; test: Toxicity testing on cancer cell lines (MTT); type: cell-based; conditions: 72 hours, n=4, read-out: Cell Line IC50, SF 539
Protocol: as §1

[5] = tested on: estrogen dependent MCF-7 breast cancer cells; test: Toxicity testing on cancer cell lines (MTT); type: cell-based; conditions: 72 hours, n=4, read-out: Cell Line IC50, MCF-7
Protocol: as §1

[6] = tested on: non estrogen dependent MDA 231 breast cancer cells; test: Toxicity testing on cancer cell lines (MTT); type: cell-based; conditions: 72 hours, n=4, read-out: Cell Line IC50, MDA 231
Protocol: as §1

| Substance | CaMKII activity ([1]; 1 μM AIP) | pIC50 [1] | PKA activity (PKA) | PKC activity (PKC) | CaMKIV activity (CaMKIV) | MK2 inhibition (in words) (MAPKAP kinase II (MK2)) | pIC50 (A549 lung cancer cells) | pIC50 (HT29 colon cancer cells) | pIC50 [2] | pIC50 [3] | pIC50 [4] | pIC50 [5] | pIC50 [6] |
| --- | --- | --- | --- | --- | --- | --- | --- | --- | --- | --- | --- | --- | --- |
| KKALRRQEAVDAL [AIP] | completely inhibited | 7.00 | not affected | not affected | not affected |  |  |  |  |  |  |  |  |
| WLRRIKA [WLRRIKA] |  |  |  |  |  | same level of inhibition as the no inhibitor control |  |  |  |  |  |  |  |
| WLRRIKAHRRIKALARQLGVAA [Peptide 2] |  |  |  |  |  |  | 4.50 | 4.58 | 4.54 | 4.71 | 4.59 | 5.11 | 4.70 |
| WLRRIKAWLRR [Peptide 3] |  |  |  |  |  |  | 4.46 | 4.68 | 4.45 | 4.37 | 4.66 | 4.87 | 4.76 |
| WLRRIKAWLRRALNRQLGVAA [Peptide 4] |  |  |  |  |  |  | 4.90 | 4.93 | 4.63 | 4.95 | 5.00 | 5.36 | 4.92 |
| YARAAARQARA [reference compound] |  |  |  |  |  | also inhibit MK2 but not nearly as much as WLRRIKAWLRRIKA |  |  |  |  |  |  |  |
